The nature of data set [1]: Relaxivity measurements at 1.41 T in water and plasma. Type of data set: physicochemical. As to conditions: relaxivity normalized to Gd, 37° C. As to the method: Relaxivity measurements at 1.41 T were performed using a MiniSpec mq60 spectrometer (Bruker Analytik, Karlsruhe) operating at a resonance frequency of 60 MHz and a temperature of 37° C. The T1 relaxation times were determined using the standard inversion recovery method. The T2 measurements were done by using the Carr-Purcell-Meiboom-Gill (CPMG) pulse sequence. All measurements were done at concentrations between 0.05 mM and 1 mM of Gd in water and plasma.
The relaxivities ri (where i=1, 2) were calculated on the basis of the measured relaxation rates Ri in water and plasma:
where Ri(0) represent the relaxation rate of the respective solvent and CGd the concentration of the compound normalized to the Gadolium.

Data set [2] deals with human activated platelets. Kind of data set: Binding of investigated compounds to human activated platelets (ICP-MS of Gd in pellet and supernatant). Type of data set: cell-based. As to conditions: incubation concentration 1 μM molecule; for Concentration within platelet pellet: ADP-activated platelet-rich plasma, 20 minutes, pellet washed. As to the method: For each experiment fresh blood was taken from a volunteer using 10 mL citrate-tubes (Sarstedt S-Monovette 02.1067.001, 10 mL, Citrate 3.13%). The 10 mL citrate-tubes were carefully inverted 10 times to mix blood and anticoagulant. The tubes were stored in an incubator at a temperature of 37° C. until centrifugation (Heraeus miniTherm CTT with integrated rotation- and turning device, turning speed: 19 rotations per minute, Heraeus Instruments GmbH, Hanau/Germany).
For plasma preparation tube centrifugation was carried out for 15 minutes at 1811 g at room temperature (Eppendorf, Centrifuge 5810R). Blood was centrifuged 15 minutes at 201 g at room temperature to produce platelet-rich plasma. The tubes were stored for 30 min at room temperature to get a better separation. The separated platelet-rich plasma was finally centrifuged for further 3 min at 453 g to remove the remaining erythrocytes. The platelet-rich plasma was activated using a final concentration of 5 μM Adenosindiphosphate (ADP, Sigma). The activated platelet-rich plasma was incubated 20 minutes with different concentrations of gadolinium-labeled compound and subsequently was centrifuged 3 minutes at 1360 g. 20 μL of incubation solution was taken to determine the concentration (n=3). […] The gadolinium concentration of supernatant and pellet was determined using an inductively coupled plasma mass spectrometry (ICP-MS Agilent 7500a).
The results for incubation concentration of 1 μM gadolinium-labeled compound are summarized in table 3 (in comparison to Gadovist® standard dose: 100 μmol Gd/kg body weight).

Data set [3] concerns the target T1, human GP IIb/IIIa receptor (Homo sapiens, UniProt P05106+P08514).
T1 construct: human GPIIb/IIIa purified from human platelets was immobilized on a 96-well solid plate; purchased Enzyme Research Laboratories Inc. (South Bend, Ind.); host or cells: human platelets (natural source, detergent-solubilised)
Briefly: GPIIb/IIIa affinity assay (displacement of tritiated reference compound from immobilized receptor). The format is binding. As to conditions: purified human GPIIb/IIIa, 60 nM 3H-labeled reference compound, 1 hour at room temperature. Here is the method: Affinity assay: In the first step human GPIIb/IIIa purified from human platelets was immobilized on a 96-well solid plate. After 48 hours the plates were washed and the unspecific binding sites were blocked with Roti®-Block. 2. In the next step, the plates were simultaneously incubated with a tritium labeled known GPIIb/IIIa binder (^3H) mixed with increasing concentrations of the novel compounds (inhibitor). The higher the affinity of the inhibitor, the lower the bound fraction of the tritiated known GPIIb/IIIa binder (^3H) was. The fraction of tritiated compound (^3H), which is not displaced by inhibitor, was measured in a microplate scintillation counter.
Purified human glycoprotein IIb/IIIa (20 mM Tris-HCl, 0.1 M NaCl, 0.1% Triton X-100, 1 mM CaCl2, 0.05% NaN3, 50% Glycerol, pH 7.4) was purchased from Enzyme Research Laboratories Inc. (South Bend, Ind.). The GPIIb/IIIa receptor was diluted in phosphate-buffered saline (Dulbecco's Phosphate Buffered Saline (D-PBS (+)) with calcium and magnesium, GIBCO®, Invitrogen) with 0.01% bovine serum albumin (albumin from bovine serum—lyophilized powder, 96%, Sigma).
The GPIIb/IIIa receptor was immobilized 48 hours at least (100 μL per well, 48 to maximum 96 hours) on a 96-well solid plate (Immuno Plate MaxiSorp™, Nunc, Roskilde, Denmark) at 277 K to 280 K and at a concentration of 0.1 μg per well to 1 μg per well. As negative control one row of the plate (n=8) was incubated just with 2% bovine serum albumin (200 μL per well, albumin from bovine serum—lyophilized powder, ≧96%, Sigma, diluted in D-PBS (+)).
After washing three times with the wash buffer (230 μL per well, Dulbecco's Phosphate Buffered Saline (D-PBS (−)) contains no calcium or magnesium, GIBCO®, Invitrogen) residual exposed plastic and unspecific binding sites were blocked by incubating the plate with a special blocking solution (200 μL per well, Roti®-Block, Car Roth GmbH Co KG, Karlsruhe) containing 2% bovine serum albumin (Albumin from bovine serum—lyophilized powder, ≧96%, Sigma) 1 hour at room temperature.
After washing three times with the wash buffer 50 μL of tritiated reference compound (60 nM, ^3H-labeled compound) and 50 μL of novel compound (inhibitor) were simultaneously added to each well and incubated for 1 hour at room temperature. Several concentrations of each novel inhibitor (0.1, 1, 2, 5, 10, 20 50, 100, 200, 500, 1000, 2000, 5000, 10000 and 20000 nM) were investigated. At each concentration of inhibitor a fourfold determination was performed.
The maximum value of tritiated reference compound was determined without addition of inhibitor (n=8). To exclude unspecific binding of ^3H— reference compound wells without glycoprotein receptors were used as negative controls (n=12, identically treated just without GPIIb/IIIa receptors).
After one hour the plate was washed three times with phosphate-buffered saline (200 μL per well, Dulbecco's Phosphate Buffered Saline (D-PBS (+)), GIBCO®, Invitrogen). Following 140 μL of liquid scintillation cocktail (MicroScint™ 40 aqueous, Perkin Elmer) was added to each well. After 15 min at room temperature the plates were measured at the microplate scintillation counter (TopCount NXT v2.13, Perkin Elmer, Packard Instrument Company).
In the first step human glycoprotein IIb/IIIa, which is purified from human platelets, was immobilized on a 96-well solid plate. After 48 hours at least the plates were washed and the unspecific binding sites were blocked with Roti®-Block. In the next step, the plates were simultaneously incubated with a tritium labeled reference compound and the novel small molecule compound (inhibitor). The higher the affinity of the inhibitor, the smaller is the bound fraction of reference compound. The fraction of tritiated reference compound, which is not displaced by inhibitor, was measured at a microplate scintillation counter. The higher the affinity of the inhibitor, the smaller is the bound fraction of tritium-labeled reference compound. […]

Broadly, the IC50 is the midpoint of a concentration-inhibition curve. The low end stands for greater potency in that assay, the high end for weaker potency in that assay.

T1 sequence (P08514 32-887 limits assumed): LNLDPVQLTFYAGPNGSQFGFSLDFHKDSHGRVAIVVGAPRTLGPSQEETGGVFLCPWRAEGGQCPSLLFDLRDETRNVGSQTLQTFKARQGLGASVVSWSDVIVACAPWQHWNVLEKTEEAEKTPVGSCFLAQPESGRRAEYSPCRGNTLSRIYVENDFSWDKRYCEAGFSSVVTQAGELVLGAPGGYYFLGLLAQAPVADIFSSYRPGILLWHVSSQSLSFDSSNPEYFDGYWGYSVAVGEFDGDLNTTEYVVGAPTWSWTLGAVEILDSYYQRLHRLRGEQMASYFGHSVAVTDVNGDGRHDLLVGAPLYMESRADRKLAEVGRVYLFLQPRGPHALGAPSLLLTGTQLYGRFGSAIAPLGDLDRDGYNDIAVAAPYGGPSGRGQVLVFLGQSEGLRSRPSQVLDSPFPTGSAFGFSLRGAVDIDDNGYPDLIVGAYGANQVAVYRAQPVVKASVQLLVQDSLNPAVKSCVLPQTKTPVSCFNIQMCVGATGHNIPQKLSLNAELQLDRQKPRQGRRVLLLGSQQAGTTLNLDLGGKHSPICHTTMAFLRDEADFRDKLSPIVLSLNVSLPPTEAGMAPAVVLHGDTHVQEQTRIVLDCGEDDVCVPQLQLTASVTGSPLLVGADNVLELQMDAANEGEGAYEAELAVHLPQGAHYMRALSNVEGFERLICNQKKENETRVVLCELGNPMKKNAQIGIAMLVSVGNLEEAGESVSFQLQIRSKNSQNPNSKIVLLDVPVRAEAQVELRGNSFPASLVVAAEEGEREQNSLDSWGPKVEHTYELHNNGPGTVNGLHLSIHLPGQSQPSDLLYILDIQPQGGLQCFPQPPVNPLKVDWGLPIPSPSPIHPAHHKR
T1 sequence (P08514 891-1039 partner limits assumed): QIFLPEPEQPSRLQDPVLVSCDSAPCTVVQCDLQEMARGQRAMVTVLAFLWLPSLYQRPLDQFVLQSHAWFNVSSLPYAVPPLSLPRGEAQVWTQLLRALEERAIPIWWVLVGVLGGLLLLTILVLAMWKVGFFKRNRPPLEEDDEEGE
T1 sequence (P05106 27-788): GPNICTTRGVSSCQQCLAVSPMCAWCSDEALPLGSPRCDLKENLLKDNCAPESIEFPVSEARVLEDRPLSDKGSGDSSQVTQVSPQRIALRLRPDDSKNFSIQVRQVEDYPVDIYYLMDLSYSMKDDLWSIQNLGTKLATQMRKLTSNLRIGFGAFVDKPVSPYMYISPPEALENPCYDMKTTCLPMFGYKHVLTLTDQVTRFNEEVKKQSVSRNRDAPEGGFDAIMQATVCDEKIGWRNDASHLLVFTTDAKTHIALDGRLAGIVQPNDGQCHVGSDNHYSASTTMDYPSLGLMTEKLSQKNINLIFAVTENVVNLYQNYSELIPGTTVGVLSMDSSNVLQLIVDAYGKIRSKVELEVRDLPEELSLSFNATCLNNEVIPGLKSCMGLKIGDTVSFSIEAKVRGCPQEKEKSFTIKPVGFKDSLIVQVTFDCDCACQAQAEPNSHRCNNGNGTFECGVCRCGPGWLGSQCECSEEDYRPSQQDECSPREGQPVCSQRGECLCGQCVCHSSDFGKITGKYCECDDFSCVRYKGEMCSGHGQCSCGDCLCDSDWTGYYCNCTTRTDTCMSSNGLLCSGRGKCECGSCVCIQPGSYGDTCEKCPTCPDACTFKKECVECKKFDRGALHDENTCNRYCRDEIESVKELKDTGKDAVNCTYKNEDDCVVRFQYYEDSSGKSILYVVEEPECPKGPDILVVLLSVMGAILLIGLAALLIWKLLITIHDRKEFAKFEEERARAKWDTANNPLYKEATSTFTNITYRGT

In data set [1], `CC(C(=O)NCC(=O)NCCCCc1cc(C#Cc2cncc([C@H](CC(=O)O)NC(=O)[C@@H]3CCCN(C(=O)CCC4CCNCC4)C3)c2)cc(CCCCNC(=O)CNC(=O)C(C)N2CCN(CC(=O)O)CCN(CC(=O)O)CCN(CC(=O)O)CC2)c1)N1CCN(CC(=O)O)CCN(CC(=O)O)CCN(CC(=O)O)CC1` (stereo partly drawn) [Example 6, Digadolinium 2,2′,2″,2′″,2″″,2′″″-({5-[(5-{(1S)-2-carboxy-1-[({(3R)-1-[3-(piperidin-4-yl)-propanoyl]piperidin-3-yl}carbonyl)amino]ethyl}pyridin-3-yl)ethynyl]-1,3-phenylene}-bis[butane-4,1-diylimino(2-oxoethane-2,1-diyl)imino(1-oxopropane-1,2-diyl)-1,4,7,10-tetraazacyclododecane-10,1,4,7-tetrayl])hexaacetate] came in with a r1 plasma of 10.3 L/mmol/s and a r1 water of 8.5 L/mmol/s. Moreover, the “Concentration within platelet pellet” value in data set [2] amounted to 6.8 ± 0.7 μM Gd. For the same molecule, in data set [3], the IC50 is 103 nM.

Turning to “Gadolinium 2,2′,2″-{10-[(2S)-1-({2-[(6-(3-[(5-{(1S)-2-carboxy-1-[({(3R)-1-[3-(piperidin-4- yl)propanoyl]piperidin-3-yl}carbonyl)amino]ethyl}pyridin-3-yl)ethynyl]phenyl}butyl)-amino]-2-oxoethyl)amino)-1-oxopropan-2-yl]-1,4,7,10-tetraazacyclododecane-1,4,7-triyl}triacetate [Example 5]”, in data set [1], the r1 plasma was determined as 9.9 L/mmol/s and the r1 water was 8.0 L/mmol/s. In addition, in data set [2], the “Concentration within platelet pellet” value was 3.9 ± 0.4 μM Gd. Moreover, in data set [2] (ratio of Gd concentration), the pellet/supernatant is given as 123 ± 16 (n = 3). Moreover, the IC50 in data set [3] was 25 nM.
